Data reported in patent publication US20260373266A1, “PROTEIN DEGRADERS AND USES THEREOF” (KYMERA THERAPEUTICS, INC., priority 2022, published 2026).

biological target: T1, DCAF1 WD40 domain (residues 1077-1390) (Homo sapiens, UniProt Q9Y4B6); assay: DCAF1 binding assay by SPR (Biacore 8K+), DCAF1-3 KD; details: 25 °C, read-out: DCAF1-3 SPR (KD)
T1 construct: DCAF1 WD40 domain (residues 1077-1390)
T1 sequence (Q9Y4B6 1077-1390): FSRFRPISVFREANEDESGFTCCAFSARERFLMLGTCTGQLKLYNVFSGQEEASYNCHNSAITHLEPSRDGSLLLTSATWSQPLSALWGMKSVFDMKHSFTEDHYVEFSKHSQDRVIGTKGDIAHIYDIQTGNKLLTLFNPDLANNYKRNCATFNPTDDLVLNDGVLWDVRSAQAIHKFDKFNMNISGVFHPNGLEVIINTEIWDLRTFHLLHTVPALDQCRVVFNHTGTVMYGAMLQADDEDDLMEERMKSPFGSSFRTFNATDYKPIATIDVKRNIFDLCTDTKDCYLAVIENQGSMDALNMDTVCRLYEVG

Kd [µM] | Structure (SMILES)
< 10 | NC(=O)C[C@H](NC(=O)c1cn[nH]c1-c1ccccc1F)c1ccc(Cl)cc1 [I-97]
> 200 | Fc1cccc(N2CCC[C@H](Cc3cc(N4CCOCC4)ccn3)C2)c1 [I-98]
10 to 100 | COCCN1CCC(c2ccnc(N[C@@H]3CCCN(c4cccc(F)c4)C3)c2)CC1 [I-99]
10 to 100 | NC(=O)C[C@H](NC(=O)c1n[nH]cc1-c1ccccc1F)c1cccc(Cl)c1 [I-100]
10 to 100 | Cc1ccc([C@H](CC(N)=O)NC(=O)c2cn[nH]c2-c2ccccc2F)cc1 [I-101]
10 to 100 | Cc1cccc(-c2[nH]ncc2C(=O)N[C@@H](CC(N)=O)c2cccc(Cl)c2)c1 [I-102]
< 10 | Cc1ccc(-c2[nH]ncc2C(=O)N[C@@H](CC(N)=O)c2cccc(Cl)c2)cc1 [I-103]
< 10 | Cc1ccccc1-c1[nH]ncc1C(=O)N[C@@H](CC(N)=O)c1cccc(Cl)c1 [I-104]
< 10 | Cc1ccccc1[C@H](CC(N)=O)NC(=O)c1cn[nH]c1-c1ccccc1F [I-105]
10 to 100 | C[C@H](NC(=O)c1c[nH]nc1-c1ccccc1F)c1cccc(Cl)c1 [I-106]
> 200 | Cc1n[nH]cc1C(=O)N[C@@H](CC(N)=O)c1cccc(Cl)c1 [I-107]
< 10 | Cc1cccc([C@H](CC(N)=O)NC(=O)c2cn[nH]c2-c2ccccc2F)c1 [I-108]
> 200 | Fc1cccc(N2CCC[C@@H](Nc3cc([C@@H]4CCCNC4)ccn3)C2)c1 [I-109]
10 to 100 | Fc1cccc(N2CCC[C@@H](Nc3cc([C@H]4CCCNC4)ccn3)C2)c1 [I-110]
> 200 | c1ccc2c(N3CCC[C@@H](Nc4cc(N5CCOCC5)ccn4)C3)n[nH]c2c1 [I-111]
10 to 100 | c1ccc2c(N3CCC[C@@H](Nc4cc(N5CCOCC5)ccn4)C3)nsc2c1 [I-112]
> 200 | Fc1cccc(N2CCC[C@@H](Sc3cc(N4CCOCC4)ccn3)C2)c1 [I-113]
10 to 100 | NC(=O)C[C@H](NC(=O)c1[nH]ccc1-c1ccccc1F)c1cccc(Cl)c1 [I-114]
< 10 | NC(=O)C[C@H](NC(=O)c1cn[nH]c1-c1cccc(F)c1)c1cccc(Cl)c1 [I-115]
< 10 | NC(=O)C[C@H](NC(=O)c1cn[nH]c1-c1ccc(F)cc1)c1cccc(Cl)c1 [I-116]
10 to 100 | N#Cc1cccc([C@H](CC(N)=O)NC(=O)c2c[nH]nc2-c2ccccc2F)c1 [I-117]
< 10 | N#Cc1ccc([C@H](CC(N)=O)NC(=O)c2c[nH]nc2-c2ccccc2F)cc1 [I-118]

Kd [µM] | Structure (SMILES)
100 to 200 | Fc1cccc(N2CCC[C@H](Nc3nccc(N4CCOCC4)n3)C2)c1 [I-119]
10 to 100 | COCCn1cc(C(=O)N[C@@H](CC(N)=O)c2cccc(Cl)c2)c(-c2ccccc2F)n1 [I-120]
> 200 | COc1ccc(N2CCOCC2)cc1N[C@@H]1CCCN(c2cccc(F)c2)C1 [I-121]
> 200 | Fc1cccc(N2CCC[C@@H](Nc3cc(C4=CCCOC4)ccn3)C2)c1 [I-122]
> 200 | Fc1cccc(N2CCC[C@@H](Nc3cc([C@@H]4CCCOC4)ccn3)C2)c1 [I-123]
> 200 | Fc1cccc(N2CCC[C@@H](Nc3cc([C@@H]4CCCCN4)ccn3)C2)c1 [I-124]
> 200 | Fc1cccc(N2CCC[C@@H](Nc3cc([C@H]4CCCOC4)ccn3)C2)c1 [I-125]
> 200 | Fc1cccc(N2CCC[C@@H](Nc3cc([C@H]4CCCCN4)ccn3)C2)c1 [I-126]
10 to 100 | NC(=O)C[C@H](NC(=O)c1cn[nH]c1-c1cccnc1)c1cccc(Cl)c1 [I-127]
10 to 100 | N#Cc1ccc(-c2[nH]ncc2C(=O)N[C@@H](CC(N)=O)c2cccc(Cl)c2)cc1 [I-128]
> 200 | NC(=O)C[C@H](NC(=O)c1cn[nH]c1-c1ccccc1F)c1cccc(O)c1 [I-129]
> 200 | NC(=O)C[C@H](NC(=O)c1cn[nH]c1-c1ccccc1F)c1ccc(O)cc1 [I-130]
> 200 | NC(=O)C[C@H](NC(=O)c1cn[nH]c1-c1ccccc1F)c1cccnc1 [I-131]
> 200 | C[C@H](CC(N)=O)NC(=O)c1cn[nH]c1-c1ccccc1F [I-132]
10 to 100 | NC(=O)C[C@H](NC(=O)c1cnn(CC2CC2)c1-c1ccccc1F)c1cccc(Cl)c1 [I-133]
100 to 200 | CC(C)n1ncc(C(=O)N[C@@H](CC(N)=O)c2cccc(Cl)c2)c1-c1ccccc1F [I-134]
> 200 | Fc1cccc(N2C[C@H](F)C[C@@H](Nc3cc(N4CCOCC4)ncn3)C2)c1 [I-135]
100 to 200 | COc1ccc([C@H](CC(N)=O)NC(=O)c2cn[nH]c2-c2ccccc2F)cc1 [I-136]
10 to 100 | NC(=O)C[C@H](NC(=O)c1cn(CC2CC2)nc1-c1ccccc1F)c1cccc(Cl)c1 [I-137]
10 to 100 | CC(C)n1cc(C(=O)N[C@@H](CC(N)=O)c2cccc(Cl)c2)c(-c2ccccc2F)n1 [I-138]
> 200 | NC(=O)C[C@H](NC(=O)c1cnn(Cc2ccccc2)c1-c1ccccc1F)c1cccc(Cl)c1 [I-140]
> 200 | CC(C(N)=O)[C@H](NC(=O)c1cn[nH]c1-c1ccccc1F)c1cccc(Cl)c1 (stereo partly shown) [I-141]

Kd [µM] | Structure (SMILES)
> 200 | O=C(C[C@H](NC(=O)c1cn[nH]c1-c1ccccc1F)c1cccc(Cl)c1)NC1CC1 [I-142]
> 200 | Cc1cccc([C@H](CC(N)=O)NC(=O)c2cn[nH]c2-c2ccccc2F)n1 [I-143]
> 200 | O=C(CC1CC[C@@H](Nc2cc(N3CCOCC3)ccn2)CN1c1cccc(F)c1)Nc1cccc(Cl)c1 (stereo partly shown) [I-144]
> 200 | CN1C[C@H](Nc2cc(N3CCOCC3)ccn2)CCC1CC(=O)Nc1cccc(Cl)c1 (stereo partly shown) [I-145]
10 to 100 | C[C@H](C(N)=O)[C@H](NC(=O)c1c[nH]nc1-c1ccccc1F)c1cccc(Cl)c1 [I-147]
< 10 | C[C@@H](C(N)=O)[C@H](NC(=O)c1c[nH]nc1-c1ccccc1F)c1cccc(Cl)c1 [I-148]
< 10 | Cc1cccc(F)c1-c1[nH]ncc1C(=O)N[C@@H](CC(N)=O)c1cccc(Cl)c1 [I-149]
< 10 | NC(=O)C[C@H](NC(=O)c1c[nH]nc1-c1c(F)cccc1F)c1cccc(Cl)c1 [I-150]
> 200 | NC(=O)C[C@H](C(=O)Nc1cnn(Cc2ccccc2)c1-c1ccccc1F)c1cccc(Cl)c1 [I-153]
> 200 | NC(=O)C[C@H](NC(=O)c1cnn(Cc2ccncn2)c1-c1ccccc1F)c1cccc(Cl)c1 [I-154]
> 200 | NC(=O)C[C@@]1(NC(=O)c2c[nH]nc2-c2ccccc2F)CCCc2c(Cl)cccc21 [I-155]
> 200 | NC(=O)C[C@H](NC(=O)c1c[nH]nc1-c1ccc[nH]c1=O)c1cccc(Cl)c1 [I-156]
10 to 100 | Cn1nccc1-c1[nH]ncc1C(=O)N[C@@H](CC(N)=O)c1cccc(Cl)c1 [I-157]
10 to 100 | NC(=O)C[C@H](NC(=O)c1cn[nH]c1-c1cnsc1)c1cccc(Cl)c1 [I-158]
> 200 | NC(=O)C[C@H](NC(=O)c1cn[nH]c1N1CCCCC1)c1cccc(Cl)c1 [I-159]
> 200 | NC(=O)C[C@H](NC(=O)c1cn[nH]c1-c1oncc1O)c1cccc(Cl)c1 [I-161]
> 200 | NC(=O)C[C@H](N/C(=N\O)c1cn[nH]c1-c1ccccc1F)c1cccc(Cl)c1 [I-162]
> 200 | O[C@@H]1C[C@@H](Nc2cc(N3CCOCC3)ncn2)CN(c2cccc(F)c2)C1 [I-163]
> 200 | CO[C@@H]1C[C@@H](Nc2cc(N3CCOCC3)ncn2)CN(c2cccc(F)c2)C1 [I-164]
> 200 | NC(=O)C[C@H](NC(=O)c1cnn(CC2CCCCC2)c1-c1ccccc1F)c1cccc(Cl)c1 [I-165]
> 200 | NC(=O)C[C@H](NC(=O)c1cnn(CC2CCCC2)c1-c1ccccc1F)c1cccc(Cl)c1 [I-166]
> 200 | NC(=O)C[C@H](NC(=O)c1cnn(Cc2cncs2)c1-c1ccccc1F)c1cccc(Cl)c1 [I-167]

Kd [µM] | Structure (SMILES)
> 200 | NC(=O)C[C@H](NC(=O)c1[nH]nc(Nc2ccncn2)c1-c1ccccc1F)c1cccc(Cl)c1 [I-168]
10 to 100 | NC(=O)C[C@H](NC(=O)c1[nH]nc(Nc2ccccc2)c1-c1ccccc1F)c1cccc(Cl)c1 [I-169]
> 200 | NC(=O)C[C@H](NC(=O)c1cnn(CCc2ccccc2)c1-c1ccccc1F)c1cccc(Cl)c1 [I-170]
> 200 | NC(=O)C[C@H](NC(=O)c1[nH]nc(NC2CCCCC2)c1-c1ccccc1F)c1cccc(Cl)c1 [I-171]
> 200 | Cn1ncc(C(=O)N[C@@H](CC(N)=O)c2cccc(Cl)c2)c1-c1ccccc1F [I-172]
> 200 | NC(=O)C[C@H](NC(=O)c1cnn(C(=O)c2ccccc2)c1-c1ccccc1F)c1cccc(Cl)c1 [I-173]
> 200 | NC(=O)C[C@H](NC(=O)c1cnn(C(=O)c2ccncn2)c1-c1ccccc1F)c1cccc(Cl)c1 [I-174]
> 200 | CC(=O)n1ncc(C(=O)N[C@@H](CC(N)=O)c2cccc(Cl)c2)c1-c1ccccc1F [I-175]
> 200 | C[C@@]1(Nc2cc(N3CCOCC3)ncn2)CCCN(c2cccc(F)c2)C1 [I-176]
> 200 | C[C@@H]1C[C@@H](Nc2cc(N3CCOCC3)ncn2)CN(c2cccc(F)c2)C1 [I-177]
> 200 | NC(=O)C[C@H](NC(=O)c1[nH]nc(CN2CCOCC2)c1-c1ccccc1F)c1cccc(Cl)c1 [I-178]
> 200 | Fc1cccc(NC2CCCN(c3cc(N4CCOCC4)ncn3)C2)c1 (stereo not shown) [I-179]
> 200 | Fc1cccc([C@H]2CCC[C@@H](Nc3cc(N4CCOCC4)ccn3)C2)c1 [I-180]
> 200 | Fc1cccc([C@H]2CCC[C@@H](Nc3nccc(N4CCOCC4)n3)C2)c1 [I-181]
> 200 | Fc1cccc([C@H]2CCC[C@@H](Nc3cc(N4CCOCC4)ncn3)C2)c1 [I-182]
> 200 | Fc1cccc([C@@H]2CCC[C@@H](Nc3cc(N4CCOCC4)ncn3)C2)c1 [I-183]
> 200 | Fc1cccc([C@@H]2CCC[C@@H](Nc3cc(N4CCOCC4)ccn3)C2)c1 [I-184]
> 200 | Fc1cccc([C@@H]2CCC[C@@H](Nc3nccc(N4CCOCC4)n3)C2)c1 [I-185]
> 200 | NC(=O)C[C@H](NC(=O)c1cn[nH]c1-c1ccccc1F)c1cnsc1 [I-187]
10 to 100 | Fc1cccc(N2CCC[C@@H]3[C@H]2CCN3c2cc(N3CCOCC3)ccn2)c1 [I-189]
> 200 | Fc1cccc(N2CCC[C@@H]3[C@H]2CCCN3c2cc(N3CCOCC3)ccn2)c1 [I-190]
> 200 | NC(=O)C[C@@]1(c2cccc(Cl)c2)CN=C(c2c[nH]nc2-c2ccccc2F)N1 [I-191]
